Measured values reported in PubChem BioAssay (NCI).
Values joined by “and” are separate entries in the source; they are usually repeats but may differ in a detail not shown here. Identical values can stand only once.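 Dose response: 5 concentrations. Exposure: 48 h. Format: 96-well plates. Endpoint: linear interpolation; highest concentration if not reached. GI50 is the concentration that inhibits growth by half. At the TGI there is no net growth.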

Tests used:
Assay in all cases: NCI anticancer screen, dose series, 48 h
HT29 colon = system: HT29 colon
HCT-116 colon = system: HCT-116 colon
MCF7 breast = system: MCF7 breast
MDA-MB-231 breast = system: MDA-MB-231 breast
SF-295 CNS = system: SF-295 CNS
T-47D breast = system: T-47D breast
UACC-257 melanoma = system: UACC-257 melanoma
OVCAR-4 ovarian = system: OVCAR-4 ovarian
SK-MEL-5 melanoma = system: SK-MEL-5 melanoma
HOP-92 NSCLC = system: HOP-92 NSCLC

Compound	GI50 (HT29 colon)	TGI (HT29 colon)	GI50 (HCT-116 colon)	TGI (HCT-116 colon)	GI50 (MCF7 breast)	TGI (MCF7 breast)	GI50 (MDA-MB-231 breast)	TGI (MDA-MB-231 breast)	GI50 (SF-295 CNS)	TGI (SF-295 CNS)	GI50 (T-47D breast)	TGI (T-47D breast)	GI50 (UACC-257 melanoma)	TGI (UACC-257 melanoma)	GI50 (OVCAR-4 ovarian)	TGI (OVCAR-4 ovarian)	GI50 (SK-MEL-5 melanoma)	TGI (SK-MEL-5 melanoma)	GI50 (HOP-92 NSCLC)	TGI (HOP-92 NSCLC)
CC(C)(F)C[C@H](N[C@@H](c1ccc(-c2ccc(S(C)(=O)=O)cc2)cc1)C(F)(F)F)C(=O)NC1(C#N)CC1	> 100 µM	> 100 µM	22 µM and > 100 µM	55 µM and > 100 µM	35 µM and > 100 µM	55 µM and > 100 µM	18.6 µM and 34.4 µM	55 µM and > 100 µM	18.8 µM and 17.9 µM	55 µM and 50.9 µM	35.7 µM and 99.7 µM	55 µM and > 100 µM	> 55 µM and 61.8 µM	> 100 µM	9.47 µM and 19.5 µM	42.8 µM and 47.4 µM	> 55 µM and 73.1 µM	> 100 µM	5.81 µM and 7.42 µM	30.3 µM and 28.4 µM
NC(=S)N/N=C\c1nccc2c(C(F)(F)C(F)(F)C(F)(F)F)cccc12	0.137 µM	3.62 µM	0.0348 µM	1.45 µM	0.0515 µM	7.54 µM	0.0561 µM	3 µM	0.209 µM	1.7 µM	0.0369 µM	1.51 µM	0.12 µM	0.575 µM	0.0329 µM	1.49 µM	0.0996 µM	0.563 µM	0.116 µM	1.44 µM
COc1ccc(S(=O)(=O)n2c3ccccc3n3ncc(-c4nnc(C)o4)c23)cc1	0.381 µM	> 100 µM	0.387 µM	24 µM	0.397 µM	> 69.8 µM	1.86 µM	39.6 µM	0.37 µM	14.4 µM	0.584 µM	62.4 µM	22.4 µM	> 87 µM	12.7 µM	> 100 µM	0.401 µM	15 µM	0.365 µM	57.3 µM
S=C(Nc1ccccc1)N1CCn2c1nsc2=Nc1ccccc1	> 100 µM	> 100 µM	34.6 µM	> 100 µM	> 100 µM	> 100 µM	34.8 µM	> 100 µM	40.4 µM	> 100 µM	> 100 µM	> 100 µM	> 100 µM	> 100 µM	> 100 µM	> 100 µM	37.8 µM	> 100 µM	92.7 µM	> 100 µM
CCCNc1cccc(-n2ncc3c(N/N=C/c4ccncc4)ncnc32)c1	14.9 µM	> 25 µM	1.82 µM	> 25 µM	> 5.61 µM	> 25 µM	> 25 µM	> 25 µM	3.58 µM	> 25 µM	> 25 µM	> 25 µM	> 25 µM	> 25 µM	> 9.88 µM	> 25 µM	1.64 µM	> 25 µM	9.32 µM	> 25 µM
CCN(CC)CCOc1nc2cc(OC)c(OC)cc2c2c1-c1ccc(OC)cc1C2=O	1.67 µM	3.11 µM	1.35 µM	2.63 µM	0.697 µM	17.3 µM	13 µM	26.9 µM	0.117 µM	0.597 µM	18.4 µM	38.2 µM	19.8 µM	34.3 µM	13.9 µM	33.5 µM	16.1 µM	30.2 µM	15.7 µM	32.1 µM
Cc1ccc(S(=O)(=O)c2ccsc2N)cc1	> 100 µM	> 100 µM	> 100 µM	> 100 µM	> 100 µM	> 100 µM	> 100 µM	> 100 µM	> 100 µM	> 100 µM	> 100 µM	> 100 µM	> 100 µM	> 100 µM	58.3 µM	> 100 µM	66 µM	> 100 µM	73.9 µM	> 100 µM
O=C(c1ccccc1)c1ccccc1C(=O)c1ccccc1	45.3 µM	> 100 µM	29.8 µM	> 100 µM	1.76 µM	10.9 µM	65.5 µM	> 100 µM	31 µM	> 100 µM	47.2 µM	> 100 µM	40.5 µM	> 100 µM	36.7 µM	> 100 µM	22.5 µM	67.1 µM	16.4 µM	99.4 µM
CC(C)N(Cc1ccccc1)S(=O)(=O)c1n[nH]c(C(C)(C)C)n1	–	> 100 µM	–	> 100 µM	–	> 100 µM	–	> 100 µM	–	> 100 µM	–	> 100 µM	–	> 100 µM	–	> 100 µM	–	> 100 µM	–	> 100 µM
CS(=O)(=O)Nc1cc(-c2ccc3ncnc(Nc4cccc(Cl)c4F)c3c2)cnc1Cl	3.3 µM	38.4 µM	4.02 µM	19.9 µM	0.624 µM	20.1 µM	2.1 µM	8.06 µM	2.47 µM	12.5 µM	0.382 µM	10.6 µM	2.62 µM	18 µM	5.82 µM	> 100 µM	1.66 µM	3.29 µM	0.672 µM	5.31 µM
Cc1ccc(/C=C2\CN(Cc3cn(CCNc4ccnc5cc(Cl)ccc45)nn3)C/C(=C\c3ccc(C)cc3)C2=O)cc1	1.91 µM	3.85 µM	1.68 µM	3.27 µM	1.62 µM	3.46 µM	2.14 µM	4.62 µM	1.99 µM	3.73 µM	2.5 µM	6.53 µM	1.7 µM	3.38 µM	1.66 µM	3.57 µM	1.7 µM	3.12 µM	1.45 µM	3.01 µM
